Data as given in patent US10280170B2, “Substituted 4,5,6,7-tetrahydro-pyrazolo[1,5-a]pyrazine derivatives and 5,6,7,8-tetrahydro-4H-pyrazolo[1,5-a][1,4]diazepine derivatives as Ros1 inhibitors” (Janssen Pharmaceutica NV, priority 2014, dated 2019).
Like-named read-outs stand apart in the source and are kept apart here. Blank lines part the entries; values can stand above or below the compound they belong to.

Columns and labels:
Ros1 enzyme = target: T1, Ros1 enzyme (Homo sapiens, UniProt P08922); assay: Ros1 enzymatic assay; format: biochemical; conditions: Ros1 enzymatic assay; read-out: ROS1 pIC50 (converted)
T1 construct: 0.5 μg/ml Ros1 enzyme
Summary of the method: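 Ros1 kinase, IRS-Tide peptide, 20 μM ATP + [33P]ATP (substrate-mix concentrations); Tris-HCl pH7.5, 10 mM MgCl2, 1 mM EGTA, 0.01% Tween-20; 120 min RT; EDTA/excess ATP stop, streptavidin beads 15 min, LEADseeker imaging.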

[1] = target: T2, Ba/F3 cells containing Ros1 wild-type protein (Homo sapiens, UniProt P08922, cells depend on it, form not given); assay: Ba/F3-Ros1 cell proliferation assay, wild-type Ros1; format: cell-based, murine; conditions: without IL-3
T2 construct: The background only speaks of 'a number of different unrelated proteins' and names SLC34A2-ROS1 for HCC78 cells
Summary of the method: (§1)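 20000 Ba/F3-Ros1 cells/well (WT, L2026M, G2032R), RPMI-1640 phenol red free + 10% FBS + 2 mM Gln, cpds from DMSO; 24 h, 37 °C, 5% CO2. Alamar Blue 4 h, RFU ex540/em590.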

[2] = target: Ba/F3 cells containing Ros1 with a mutation at the gatekeeper residue (L2026M) (Homo sapiens, UniProt P08922, L2026M, cells depend on it, form not given); assay: Ba/F3-Ros1 cell proliferation assay, L2026M gatekeeper mutant; format: cell-based, murine; conditions: without IL-3
Summary of the method: as §1

[3] = test system: Ba/F3 cells containing Ros1 wild-type protein + IL-3; assay: Ba/F3-Ros1 cell proliferation counter-screen, wild-type protein in the presence of 10 ng/ml murine IL-3; format: cell-based; conditions: Mus musculus, BaF3, 24 h, read-out: BaF3-ROS1 + IL3 pIC50 (converted)
Summary of the method: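 Read-out is resazurin-based Alamar Blue fluorescence (RFU, ex 540 nm, em 590 nm), measured 4 h after dye addition. Before that, wild-type Ros1 Ba/F3 cells had been cultured 24 h with compound in the presence of 10 ng/ml murine IL-3.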

[4] = test system: HCC78 non-small cell lung cancer cells; assay: HCC78 cell proliferation assay; format: cell-based; conditions: for EC50: Homo sapiens, HCC78, 96 h, read-out: HCC-78 PROL pEC50 (converted)
Method: HCC78 Cell Proliferation Assay
Approximately 1000 HCC78 non-small cell lung cancer cells in 180 μl of cell culture medium (RPMI-1640, 10% FBS, 2 mM L-Glutamine, 10 mM Hepes, 1 mM sodium pyruvate, 4.5 g/L glucose, 1.5 g/L sodium bicarbonate, 25 μg/ml Gentamycin) were seeded in each well of a 96-well polystyrene, tissue-culture treated plate and incubated at 37° C. and 5% CO2. After 24 hours, compounds were diluted in cell culture medium from which 20 μl was added to the wells containing cells and incubated for 4 days at 37° C. and 5% CO2. A 5 mg/ml solution of the tetrazolium dye MTT was prepared in PBS (phosphate-buffered saline) and 25 μl was added to each well. After 2 hours the medium was removed and replaced by 125 μL of 4/1 DMSO/glycine buffer (0.1M glycine, 0.1M NaCl, pH 10.5) before absorbance was determined at 538 nm.

[5] = counter-screen, wild-type, 10 ng/ml murine IL-3

T2 sequence (P08922 whole entry, stated change not applied): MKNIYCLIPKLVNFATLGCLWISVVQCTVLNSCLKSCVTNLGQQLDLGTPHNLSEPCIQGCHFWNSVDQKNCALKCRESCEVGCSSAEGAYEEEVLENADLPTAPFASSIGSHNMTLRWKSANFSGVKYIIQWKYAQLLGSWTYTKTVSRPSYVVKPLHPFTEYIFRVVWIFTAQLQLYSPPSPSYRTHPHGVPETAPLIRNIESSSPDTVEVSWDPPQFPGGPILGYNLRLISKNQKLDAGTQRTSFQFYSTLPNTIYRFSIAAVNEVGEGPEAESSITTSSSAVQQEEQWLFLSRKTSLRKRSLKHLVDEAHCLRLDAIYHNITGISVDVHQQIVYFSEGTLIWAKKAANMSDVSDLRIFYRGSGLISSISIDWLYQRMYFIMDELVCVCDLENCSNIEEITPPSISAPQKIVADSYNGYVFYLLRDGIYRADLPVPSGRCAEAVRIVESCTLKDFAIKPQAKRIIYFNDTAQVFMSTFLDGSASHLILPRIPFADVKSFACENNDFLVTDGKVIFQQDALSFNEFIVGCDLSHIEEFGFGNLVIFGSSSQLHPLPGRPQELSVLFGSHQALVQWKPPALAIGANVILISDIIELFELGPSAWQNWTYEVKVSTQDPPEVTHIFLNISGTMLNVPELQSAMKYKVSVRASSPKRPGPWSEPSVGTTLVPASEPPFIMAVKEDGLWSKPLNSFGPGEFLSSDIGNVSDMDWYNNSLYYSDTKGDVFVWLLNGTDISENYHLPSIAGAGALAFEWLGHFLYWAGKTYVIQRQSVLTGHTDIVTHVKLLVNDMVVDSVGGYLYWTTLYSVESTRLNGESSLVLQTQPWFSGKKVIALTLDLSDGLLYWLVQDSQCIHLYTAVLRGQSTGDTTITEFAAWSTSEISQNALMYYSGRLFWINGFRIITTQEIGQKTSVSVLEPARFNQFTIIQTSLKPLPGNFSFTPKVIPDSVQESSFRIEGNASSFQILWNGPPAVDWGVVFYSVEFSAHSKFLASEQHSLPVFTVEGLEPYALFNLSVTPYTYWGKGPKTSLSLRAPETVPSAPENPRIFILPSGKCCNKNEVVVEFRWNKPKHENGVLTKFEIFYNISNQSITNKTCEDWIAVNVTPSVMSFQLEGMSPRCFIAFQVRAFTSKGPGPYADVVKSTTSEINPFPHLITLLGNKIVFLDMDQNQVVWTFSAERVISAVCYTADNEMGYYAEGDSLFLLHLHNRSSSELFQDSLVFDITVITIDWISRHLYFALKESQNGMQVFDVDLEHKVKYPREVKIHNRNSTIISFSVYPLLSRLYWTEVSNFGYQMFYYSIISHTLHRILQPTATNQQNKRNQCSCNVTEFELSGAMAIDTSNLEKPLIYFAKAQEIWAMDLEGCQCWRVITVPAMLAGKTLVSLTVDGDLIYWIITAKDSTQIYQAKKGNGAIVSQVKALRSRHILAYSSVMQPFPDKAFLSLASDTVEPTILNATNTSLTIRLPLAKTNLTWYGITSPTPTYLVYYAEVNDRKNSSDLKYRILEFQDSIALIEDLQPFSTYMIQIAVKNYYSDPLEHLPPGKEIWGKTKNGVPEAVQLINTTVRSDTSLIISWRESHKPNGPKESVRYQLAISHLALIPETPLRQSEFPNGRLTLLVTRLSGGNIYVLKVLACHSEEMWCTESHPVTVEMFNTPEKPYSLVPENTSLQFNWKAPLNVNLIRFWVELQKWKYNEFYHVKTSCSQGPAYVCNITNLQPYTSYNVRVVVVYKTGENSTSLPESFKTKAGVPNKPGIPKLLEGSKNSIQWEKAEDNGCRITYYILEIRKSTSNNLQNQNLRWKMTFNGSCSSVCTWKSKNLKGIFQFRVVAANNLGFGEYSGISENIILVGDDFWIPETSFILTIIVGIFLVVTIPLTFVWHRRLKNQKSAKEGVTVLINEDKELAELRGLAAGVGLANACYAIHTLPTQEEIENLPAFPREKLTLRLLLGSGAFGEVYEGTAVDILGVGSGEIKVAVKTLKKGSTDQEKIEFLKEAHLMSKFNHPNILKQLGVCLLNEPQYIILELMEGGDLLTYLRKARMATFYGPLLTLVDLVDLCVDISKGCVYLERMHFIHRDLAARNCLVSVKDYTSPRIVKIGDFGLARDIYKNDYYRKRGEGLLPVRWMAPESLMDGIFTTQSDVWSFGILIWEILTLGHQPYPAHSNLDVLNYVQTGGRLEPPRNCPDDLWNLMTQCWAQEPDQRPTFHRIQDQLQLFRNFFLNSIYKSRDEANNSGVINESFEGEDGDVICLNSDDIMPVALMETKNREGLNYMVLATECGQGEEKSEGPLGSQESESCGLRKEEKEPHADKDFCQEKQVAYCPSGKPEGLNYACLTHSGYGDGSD
Sequence of Ba/F3 cells containing Ros1 with a mutation at the gatekeeper residue (L2026M) (P08922 whole entry L2026M, form open): as the sequence (P08922 whole entry, stated change not applied) above, with L2026M counted along it
T1 sequence (P08922 28-2347): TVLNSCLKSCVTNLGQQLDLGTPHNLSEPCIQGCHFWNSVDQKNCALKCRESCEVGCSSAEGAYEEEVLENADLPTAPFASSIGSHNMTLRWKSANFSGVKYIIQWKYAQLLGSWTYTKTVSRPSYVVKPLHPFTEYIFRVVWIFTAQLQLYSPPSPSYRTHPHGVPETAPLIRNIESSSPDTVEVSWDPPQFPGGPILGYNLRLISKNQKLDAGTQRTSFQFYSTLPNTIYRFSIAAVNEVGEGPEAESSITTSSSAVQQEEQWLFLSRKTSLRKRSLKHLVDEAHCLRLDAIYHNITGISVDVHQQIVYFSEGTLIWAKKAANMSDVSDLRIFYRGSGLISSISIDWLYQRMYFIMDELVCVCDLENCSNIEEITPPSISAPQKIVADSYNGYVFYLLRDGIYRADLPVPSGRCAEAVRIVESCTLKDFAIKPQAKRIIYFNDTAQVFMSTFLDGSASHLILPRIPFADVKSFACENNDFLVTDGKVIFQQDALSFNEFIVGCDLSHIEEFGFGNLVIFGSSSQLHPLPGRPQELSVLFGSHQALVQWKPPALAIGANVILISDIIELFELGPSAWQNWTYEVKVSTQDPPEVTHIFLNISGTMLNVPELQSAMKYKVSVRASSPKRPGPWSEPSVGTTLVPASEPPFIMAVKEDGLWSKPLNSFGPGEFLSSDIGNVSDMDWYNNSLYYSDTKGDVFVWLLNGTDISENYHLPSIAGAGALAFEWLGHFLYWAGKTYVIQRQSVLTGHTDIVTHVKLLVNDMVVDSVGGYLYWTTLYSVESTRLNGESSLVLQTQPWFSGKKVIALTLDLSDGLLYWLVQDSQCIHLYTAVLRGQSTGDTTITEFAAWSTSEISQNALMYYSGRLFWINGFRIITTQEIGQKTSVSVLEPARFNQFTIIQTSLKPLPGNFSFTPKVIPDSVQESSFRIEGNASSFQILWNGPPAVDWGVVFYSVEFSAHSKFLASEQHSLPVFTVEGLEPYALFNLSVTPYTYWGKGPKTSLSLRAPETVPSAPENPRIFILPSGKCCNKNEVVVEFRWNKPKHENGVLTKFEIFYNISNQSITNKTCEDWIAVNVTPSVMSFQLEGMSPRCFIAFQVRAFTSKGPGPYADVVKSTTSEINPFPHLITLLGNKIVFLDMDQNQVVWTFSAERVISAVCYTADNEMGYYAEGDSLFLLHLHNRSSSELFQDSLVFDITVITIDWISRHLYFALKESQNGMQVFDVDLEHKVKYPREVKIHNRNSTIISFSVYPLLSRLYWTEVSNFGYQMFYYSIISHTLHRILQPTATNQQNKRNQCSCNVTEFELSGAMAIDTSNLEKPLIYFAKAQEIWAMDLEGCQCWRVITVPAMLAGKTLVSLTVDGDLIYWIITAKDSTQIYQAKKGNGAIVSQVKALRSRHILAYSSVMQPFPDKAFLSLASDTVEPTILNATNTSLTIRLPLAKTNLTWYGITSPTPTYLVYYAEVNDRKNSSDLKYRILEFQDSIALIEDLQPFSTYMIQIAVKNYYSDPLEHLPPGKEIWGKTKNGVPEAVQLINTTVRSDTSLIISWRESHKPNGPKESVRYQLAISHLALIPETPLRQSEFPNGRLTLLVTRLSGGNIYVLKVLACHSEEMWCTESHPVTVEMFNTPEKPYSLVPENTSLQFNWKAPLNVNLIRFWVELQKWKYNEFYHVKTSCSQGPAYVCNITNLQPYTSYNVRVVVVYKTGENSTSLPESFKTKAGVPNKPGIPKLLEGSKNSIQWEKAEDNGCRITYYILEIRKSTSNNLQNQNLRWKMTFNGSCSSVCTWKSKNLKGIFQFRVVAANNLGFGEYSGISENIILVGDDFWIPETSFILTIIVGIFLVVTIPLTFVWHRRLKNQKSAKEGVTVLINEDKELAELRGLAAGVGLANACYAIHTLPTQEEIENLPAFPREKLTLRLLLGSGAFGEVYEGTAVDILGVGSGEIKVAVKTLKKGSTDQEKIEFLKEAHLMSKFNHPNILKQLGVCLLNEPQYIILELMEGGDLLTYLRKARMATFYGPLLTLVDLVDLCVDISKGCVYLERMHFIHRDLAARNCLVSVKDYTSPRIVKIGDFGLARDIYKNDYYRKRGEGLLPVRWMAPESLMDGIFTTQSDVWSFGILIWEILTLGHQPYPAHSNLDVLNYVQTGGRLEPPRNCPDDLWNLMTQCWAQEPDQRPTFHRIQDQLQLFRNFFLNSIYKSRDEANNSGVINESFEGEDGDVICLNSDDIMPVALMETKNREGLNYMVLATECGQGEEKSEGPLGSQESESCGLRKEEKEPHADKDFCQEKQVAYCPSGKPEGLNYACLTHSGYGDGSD

Structure (SMILES): CC(C)c1ccc(COc2ccc(-c3c(-c4ccncc4)nn4c3C(=O)NCC4)cc2)cc1CCO [Compound 11]
IC50 (Ros1 enzyme): 0.01 µM
BaF3-ROS1-IL3 pIC50 [1]: 7.7
Ba/F3 Ros1 L2026M (-IL-3) pIC50 [2]: 7.8
CC50 [3]: > 10 µM
EC50 [4]: 0.0316 µM
melting point: 195 °C

Structure (SMILES): CC(C)c1ccc(COc2ccc(-c3c(-c4ccncc4)nn4c3C(=O)NCC4)c(F)c2F)cc1 [Compound 16]
IC50 (Ros1 enzyme): 0.1 µM
BaF3-ROS1-IL3 pIC50 [1]: 7.4
Ba/F3 Ros1 L2026M (-IL-3) pIC50 [2]: 7.1
CC50 [3]: > 10 µM
EC50 [4]: 0.398 µM
melting point: 214 °C

Structure (SMILES): CC(C)c1ccc(COc2ccc(-c3c(-c4ccncc4)nn4c3C(=O)N(CCO)CC4)c(F)c2F)cc1 [Compound 20]
IC50 (Ros1 enzyme): 0.1 µM
BaF3-ROS1-IL3 pIC50 [1]: 6.9
Ba/F3 Ros1 L2026M (-IL-3) pIC50 [2]: 7.0
CC50 [3]: > 10 µM
EC50 [4]: 1.58 µM
melting point: 138 °C

IC50 (Ros1 enzyme): 0.0126 µM
BaF3-ROS1-IL3 pIC50 [1]: 7.7
Ba/F3 Ros1 L2026M (-IL-3) pIC50 [2]: 7.2
HCC-78 PROL pEC50 ([4]; HCC78 cells, 4 days, MTT): 7.2
melting point: 192 °C
Structure (SMILES): CC(C)c1ccc(COc2ccc(-c3c(-c4ccncc4)nn4c3C(=O)N(CC(O)CO)CC4)c(F)c2)cc1 (stereo not drawn) [Compound 23]
CC50 [3, 5]: > 10 µM

Structure (SMILES): CC(C)c1ccc(COc2ccc(-c3c(-c4ccncc4)nn4c3C(=O)NCC4)c(Cl)c2)cc1 [Compound 24]
IC50 (Ros1 enzyme): 0.00794 µM
BaF3-ROS1-IL3 pIC50 [1]: 7.8
Ba/F3 Ros1 L2026M (-IL-3) pIC50 [2]: 8.2
CC50 [3]: > 10 µM
EC50 [4]: 0.00158 µM
melting point: 267 °C

Structure (SMILES): CC(C)c1ccc(COc2ccc(-c3c(-c4ccncc4)nn4c3C(=O)NCC4)cc2Cl)cc1 [Compound 25]
IC50 (Ros1 enzyme): 0.126 µM
BaF3-ROS1-IL3 pIC50 [1]: 6.8
Ba/F3 Ros1 L2026M (-IL-3) pIC50 [2]: 6.5
CC50 [3]: > 10 µM
EC50 [4]: 0.501 µM
melting point: 251 °C

Structure (SMILES): CC(C)c1ccc(COc2ccc(-c3c(-c4ccncc4)nn4c3C(=O)NCC4)c(C#N)c2)cc1 [Compound 27]
IC50 (Ros1 enzyme): 0.0158 µM
BaF3-ROS1-IL3 pIC50 [1]: 7.7
Ba/F3 Ros1 L2026M (-IL-3) pIC50 [2]: 7.1
CC50 [3]: > 10 µM
EC50 [4]: 0.02 µM
melting point: 268 °C

Structure (SMILES): Cc1cc(-c2c(-c3ccncc3)nn3c2C(=O)NCC3)cc(C)c1OCc1ccc(C(C)C)cc1 [Compound 29]
IC50 (Ros1 enzyme): > 10 µM
BaF3-ROS1-IL3 pIC50 [1]: <5
Ba/F3 Ros1 L2026M (-IL-3) pIC50 [2]: <5
CC50 [3]: > 10 µM
EC50 [4]: > 10 µM
melting point: 260 °C

Structure (SMILES): Cc1cc(-c2c(-c3ccncc3)nn3c2C(=O)N(CCO)CC3)cc(C)c1OCc1ccc(C(C)C)cc1 [Compound 30]
IC50 (Ros1 enzyme): > 10 µM
BaF3-ROS1-IL3 pIC50 [1]: <5
Ba/F3 Ros1 L2026M (-IL-3) pIC50 [2]: <5
CC50 [3]: > 10 µM
EC50 [4]: > 10 µM
melting point: 170 °C

Structure (SMILES): COc1cc(-c2c(-c3ccncc3)nn3c2C(=O)NCC3)cc(OC)c1OCc1ccc(C(C)C)cc1 [Compound 35]
IC50 (Ros1 enzyme): 5.01 µM
BaF3-ROS1-IL3 pIC50 [1]: 5.7
Ba/F3 Ros1 L2026M (-IL-3) pIC50 [2]: 5.8
CC50 [3]: > 10 µM
EC50 [4]: > 10 µM
melting point: 192 °C

Structure (SMILES): COc1cc(-c2c(-c3ccncc3)nn3c2C(=O)N(CCO)CC3)cc(OC)c1OCc1ccc(C(C)C)cc1 [Compound 36]
IC50 (Ros1 enzyme): 5.01 µM
BaF3-ROS1-IL3 pIC50 [1]: 5.8
Ba/F3 Ros1 L2026M (-IL-3) pIC50 [2]: 5.7
CC50 [3]: > 10 µM
EC50 [4]: > 10 µM
melting point: 176 °C

IC50 (Ros1 enzyme): 0.398 µM
BaF3-ROS1-IL3 pIC50 [1]: 6.7
Ba/F3 Ros1 L2026M (-IL-3) pIC50 [2]: 6.3
EC50 ([4]; HCC78 cells, 4 days, MTT): 1.26 µM
melting point: 114 °C
Structure (SMILES): CC(C)c1ccc(COc2ccc(-c3c(-c4ccncc4)nn4c3C(=O)N(CC3COC(C)(C)O3)CC4)cc2)cc1 (stereo not drawn) [Compound 42]
CC50 [3, 5]: > 10 µM

IC50 (Ros1 enzyme): 0.0501 µM
BaF3-ROS1-IL3 pIC50 [1]: 7.4
Ba/F3 Ros1 L2026M (-IL-3) pIC50 [2]: 7.3
HCC-78 PROL pEC50 ([4]; HCC78 cells, 4 days, MTT): 6.9
melting point: 190 °C
Structure (SMILES): CC(C)c1ccc(COc2ccc(-c3c(-c4ccncc4)nn4c3C(=O)N(CC(O)CO)CC4)cc2)cc1 (stereo not drawn) [Compound 43]
CC50 [3, 5]: > 10 µM
